Experimental data reported in patent US20230340011A1 (Asteroid Therapeutics, priority 2022, published 2023).

Molecular target: LXRβ (Homo sapiens (Human), UniProt P55055)
Test: In vitro assay LXRβ: PathHunter NHR CHO cells, LXRβ / Steroid Receptor Co-activator Peptide enzyme fragment complementation
Type: cell-based
Settings: PathHunter NHR CHO cells, full-length human LXRβ and SRCP, chemiluminescent signal; read-out: LXRβ PPI
Method: PathHunter NHR CHO cells stably transfected with tagged full-length human LXRβ and a nuclear fusion protein containing Steroid Receptor Co-activator Peptide (SRCP). The full-length human LXRβ was tagged with the ProLink™ component of the DiscoverX Enzyme Fragment Complementation (EFC) system and the SRCP domain is fused to the enzyme acceptor component (EA) expressed in the nucleus. Cells were seeded in a total volume of 20 μL into white walled, 384-well microplates and incubated at 37° C. overnight prior to testing. Assay media contained charcoal-dextran filtered serum to reduce the level of hormones present. Final assay vehicle concentration was 1%. […] Microplates were read following signal generation with a PerkinElmer Envision instrument for chemiluminescent signal detection.

Sequence of LXRβ (P55055 whole entry, the tested form may be a part): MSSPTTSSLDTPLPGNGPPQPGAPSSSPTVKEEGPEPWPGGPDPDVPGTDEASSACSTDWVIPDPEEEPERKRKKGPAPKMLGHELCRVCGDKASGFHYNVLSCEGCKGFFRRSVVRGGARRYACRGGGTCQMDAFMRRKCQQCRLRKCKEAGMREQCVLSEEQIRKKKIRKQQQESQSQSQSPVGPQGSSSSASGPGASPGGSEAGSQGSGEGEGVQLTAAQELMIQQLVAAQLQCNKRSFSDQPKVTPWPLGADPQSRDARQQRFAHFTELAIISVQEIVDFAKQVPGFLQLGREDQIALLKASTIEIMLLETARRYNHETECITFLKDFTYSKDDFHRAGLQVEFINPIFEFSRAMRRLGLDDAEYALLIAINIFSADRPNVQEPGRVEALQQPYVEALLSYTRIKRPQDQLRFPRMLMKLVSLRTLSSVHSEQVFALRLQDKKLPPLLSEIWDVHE

Structure (SMILES)	EC50 [µM]
COCCCON(C)C(=O)CC[C@@H](C)[C@H]1CC[C@H]2[C@@H]3CC=C4C[C@@H](O)CC[C@]4(C)[C@H]3CC[C@]12C [Example 31, (R)-4-((3S,8S,9S,10R,13R,14S,17R)-3-hydroxy-10,13-dimethyl-2,3,4,7,8,9,10,11,12,13,14,15,16,17-tetradecahydro-1H-cyclopenta[a]phenanthren-17-yl)-N-(3-methoxypropoxy)-N-methylpentanamide]	1 to 10
C[C@H](CCC(=O)N1CCN(c2ccccn2)CC1)[C@H]1CC[C@H]2[C@@H]3CC=C4C[C@@H](O)CC[C@]4(C)[C@H]3CC[C@]12C [Example 307, (R)-4-((3S,8S,9S,10R,13R,14S,17R)-3-hydroxy-10,13-dimethyl-2,3,4,7,8,9,10,11,12,13,14,15,16,17-tetradecahydro-1H-cyclopenta[a]phenanthren-17-yl)-1-(4-(pyridin-2-yl)piperazin-1-yl)pentan-1-one]	> 10
CC(=O)N1CCN(C(=O)CC[C@@H](C)[C@H]2CC[C@H]3[C@@H]4CC=C5C[C@@H](O)CC[C@]5(C)[C@H]4CC[C@]23C)C[C@@H]1C [Example 427, (R)-1-((S)-4-acetyl-3-methylpiperazin-1-yl)-4-((3S,8S,9S,10R,13R,14S,17R)-3-hydroxy-10,13-dimethyl-2,3,4,7,8,9,10,11,12,13,14,15,16,17-tetradecahydro-1H-cyclopenta[a]phenanthren-17-yl)pentan-1-one]	> 10
C[C@H]1CON(C(=O)CC[C@@H](C)[C@H]2CC[C@H]3[C@@H]4CC=C5C[C@@H](O)CC[C@]5(C)[C@H]4CC[C@]23C)C1 [Example 58, (R)-4-((3S,8S,9S,10R,13R,14S,17R)-3-hydroxy-10,13-dimethyl-2,3,4,7,8,9,10,11,12,13,14,15,16,17-tetradecahydro-1H-cyclopenta[a]phenanthren-17-yl)-1-((R)-4-methylisoxazolidin-2-yl)pentan-1-one]	0.25 to 1
C[C@H](CCC(=O)N1CCC[C@H](Oc2ccncn2)C1)[C@H]1CC[C@H]2[C@@H]3CC=C4C[C@@H](O)CC[C@]4(C)[C@H]3CC[C@]12C [Example 218, (R)-4-((3S,8S,9S,10R,13R,14S,17R)-3-hydroxy-10,13-dimethyl-2,3,4,7,8,9,10,11,12,13,14,15,16,17-tetradecahydro-1H-cyclopenta[a]phenanthren-17-yl)-1-((S)-3-(pyrimidin-4-yloxy)piperidin-1-yl)pentan-1-one]	0.25 to 1
C[C@@H]1CCCN(C(=O)CC[C@@H](C)[C@H]2CC[C@H]3[C@@H]4CC=C5C[C@@H](O)CC[C@]5(C)[C@H]4CC[C@]23C)O1 [Example 60, (R)-4-((3S,8S,9S,10R,13R,14S,17R)-3-hydroxy-10,13-dimethyl-2,3,4,7,8,9,10,11,12,13,14,15,16,17-tetradecahydro-1H-cyclopenta[a]phenanthren-17-yl)-1-((R)-6-methyl-1,2-oxazinan-2-yl)pentan-1-one]	0.25 to 1
CC(=O)N1CCN(C(=O)CC[C@@H](C)[C@H]2CC[C@H]3[C@@H]4CC=C5C[C@@H](O)CC[C@]5(C)[C@H]4CC[C@]23C)[C@H](C)C1 [Example 275, (4R)-4-[(1R,3aS,3bS,7S,9aR,9bS,11aR)-7-hydroxy-9a,11a-dimethyl-1H,2H,3H,3aH,3bH,4H,6H,7H,8H,9H,9aH,9bH,10H,11H,11aH-cyclopenta[a]phenanthren-1-yl]-1-[(2R)-4-acetyl-2-methylpiperazin-1-yl]pentan-1-one]	> 10
C[C@H](CCc1ccnnc1)[C@H]1CC[C@H]2[C@@H]3CC=C4C[C@@H](O)CC[C@]4(C)[C@H]3CC[C@]12C [Example 170, (1R,3aS,3bS,7S,9aR,9bS,11aR)-9a,11a-dimethyl-1-[(2R)-4-(pyridazin-4-yl)butan-2-yl]-1H,2H,3H,3aH,3bH,4H,6H,7H,8H,9H,9aH,9bH,10H,11H,11aH-cyclopenta[a]phenanthren-7-ol]	> 10
C[C@H](CCC(=O)N1OCC[C@@H]1C)[C@H]1CC[C@H]2[C@@H]3CC=C4C[C@@H](O)CC[C@]4(C)[C@H]3CC[C@]12C [Example 57, (R)-4-((3S,8S,9S,10R,13R,14S,17R)-3-hydroxy-10,13-dimethyl-2,3,4,7,8,9,10,11,12,13,14,15,16,17-tetradecahydro-1H-cyclopenta[a]phenanthren-17-yl)-1-((S)-3-methylisoxazolidin-2-yl)pentan-1-one]	0.25 to 1
COCCON(C)C(=O)CC[C@@H](C)[C@H]1CC[C@H]2[C@@H]3CC=C4C[C@@H](O)CC[C@]4(C)[C@H]3CC[C@]12C [Example 27, (R)-4-((3S,8S,9S,10R,13R,14S,17R)-3-hydroxy-10,13-dimethyl-2,3,4,7,8,9,10,11,12,13,14,15,16,17-tetradecahydro-1H-cyclopenta[a]phenanthren-17-yl)-N-(2-methoxyethoxy)-N-methylpentanamide]	1 to 10
CC(=O)N1CCN(C(=O)CC[C@@H](C)[C@H]2CC[C@H]3[C@@H]4CC=C5C[C@@H](O)CC[C@]5(C)[C@H]4CC[C@]23C)C[C@@H]1C [Example 277, (R)-1-((S)-4-acetyl-3-methylpiperazin-1-yl)-4-((3S,8S,9S,10R,13R,14S,17R)-3-hydroxy-10,13-dimethyl-2,3,4,7,8,9,10,11,12,13,14,15,16,17-tetradecahydro-1H-cyclopenta[a]phenanthren-17-yl)pentan-1-one]	> 10
C[C@H](CCC(=O)N1CCC(Oc2ccncn2)CC1)[C@H]1CC[C@H]2[C@@H]3CC=C4C[C@@H](O)CC[C@]4(C)[C@H]3CC[C@]12C [Example 221, (4R)-4-[(1R,3aS,3bS,7S,9aR,9bS,11aR)-7-hydroxy-9a,11a-dimethyl-1H,2H,3H,3aH,3bH,4H,6H,7H,8H,9H,9aH,9bH,10H,11H,11aH-cyclopenta[a]phenanthren-1-yl]-1-[4-(pyrimidin-4-yloxy)piperidin-1-yl]pentan-1-one]	1 to 10
CNc1nccc(N2CCN(C(=O)CC[C@@H](C)[C@H]3CC[C@H]4[C@@H]5CC=C6C[C@@H](O)CC[C@]6(C)[C@H]5CC[C@]34C)CC2)n1 [Example 561, (R)-4-((3S,8S,9S,10R,13R,14S,17R)-3-hydroxy-10,13-dimethyl-2,3,4,7,8,9,10,11,12,13,14,15,16,17-tetradecahydro-1H-cyclopenta[a]phenanthren-17-yl)-1-(4-(2-(methylamino)pyrimidin-4-yl)piperazin-1-yl)pentan-1-one]	> 10
CC(=O)N1CCC(N(C)C(=O)CC[C@@H](C)[C@H]2CC[C@H]3[C@@H]4CC=C5C[C@@H](O)CC[C@]5(C)[C@H]4CC[C@]23C)CC1 [Example 407, (4R)-4-[(1R,3aS,3bS,7S,9aR,9bS,11aR)-7-hydroxy-9a,11a-dimethyl-1H,2H,3H,3aH,3bH,4H,6H,7H,8H,9H,9aH,9bH,10H,11H,11aH-cyclopenta[a]phenanthren-1-yl]-N-(1-acetylpiperidin-4-yl)-N-methylpentanamide]	> 10
C[C@H](CCC(=O)N1O[C@H]2C[C@@H]1[C@H](O)[C@@H]2O)[C@H]1CC[C@H]2[C@@H]3CC=C4C[C@@H](O)CC[C@]4(C)[C@H]3CC[C@]12C [Example 54, (R)-1-((1S,4R,5S,6S)-5,6-dihydroxy-2-oxa-3-azabicyclo [2.2.1]heptan-3-yl)-4-((3S,8S,9S,10R,13R,14S,17R)-3-hydroxy-10,13-dimethyl-2,3,4,7,8,9,10,11,12,13,14,15,16,17-tetradecahydro-1H-cyclopenta[a]phenanthren-17-yl) pentan-1-one]	> 10
C[C@H](CCC(=O)N1CCN(c2ncccn2)CC1)[C@H]1CC[C@H]2[C@@H]3CC=C4C[C@@H](O)CC[C@]4(C)[C@H]3CC[C@]12C [Example 305, (R)-4-((3S,8S,9S,10R,13R,14S,17R)-3-hydroxy-10,13-dimethyl-2,3,4,7,8,9,10,11,12,13,14,15,16,17-tetradecahydro-1H-cyclopenta[a]phenanthren-17-yl)-1-(4-(pyrimidin-2-yl)piperazin-1-yl)pentan-1-one]	> 10
C[C@H](CCC(=O)N1CCN(Cc2cncnc2)CC1)[C@H]1CC[C@H]2[C@@H]3CC=C4C[C@@H](O)CC[C@]4(C)[C@H]3CC[C@]12C [Example 224, (4R)-4-[(1R,3aS,3bS,7S,9aR,9bS,11aR)-7-hydroxy-9a,11a-dimethyl-1H,2H,3H,3aH,3bH,4H,6H,7H,8H,9H,9aH,9bH,10H,11H,11aH-cyclopenta[a]phenanthren-1-yl]-1-{4-[(pyrimidin-5-yl)methyl]piperazin-1-yl}pentan-1-one]	> 10
CC(=O)N1CCN(C(=O)CC[C@@H](C)[C@H]2CC[C@H]3[C@@H]4CC=C5C[C@@H](O)CC[C@]5(C)[C@H]4CC[C@]23C)[C@@H](C)C1 [Example 428, (4R)-4-[(1R,3aS,3bS,7S,9aR,9bS,11aR)-7-hydroxy-9a,11a-dimethyl-1H,2H,3H,3aH,3bH,4H,6H,7H,8H,9H,9aH,9bH,10H,11H,11aH-cyclopenta[a]phenanthren-1-yl]-1-[(2S)-4-acetyl-2-methylpiperazin-1-yl]pentan-1-one]	> 10
C[C@H](CCC(=O)N1CCN(c2ccnn2C)CC1)[C@H]1CC[C@H]2[C@@H]3CC=C4C[C@@H](O)CC[C@]4(C)[C@H]3CC[C@]12C [Example 226, (R)-4-((3S,8S,9S,10R,13R,14S,17R)-3-hydroxy-10,13-dimethyl-2,3,4,7,8,9,10,11,12,13,14,15,16,17-tetradecahydro-1H-cyclopenta[a]phenanthren-17-yl)-1-(4-(1-methyl-1H-pyrazol-5-yl)piperazin-1-yl)pentan-1-one]	> 10
